Results as given in patent US4535080A, “Derivatives of 2-piperazino-pyrimidine, methods for their preparation and their utilization as drugs or intermediates for drugs” (Pharmuka Laboratoires, priority 1981, dated 1985).
Read-outs that look alike come from different tables or passages of the source.

What was measured:
[1] = biological target: T1, receptor sites of clonidine (rat cortex membranes) (Rattus norvegicus, UniProt P22909); assay: Affinity for the receptor sites of clonidine (3H clonidine binding, rat cortex membranes)
T1 construct: measured on rat cortex membranes; from tissue; host or cells: rat cortex membranes
T1 sequence (P22909 1-465): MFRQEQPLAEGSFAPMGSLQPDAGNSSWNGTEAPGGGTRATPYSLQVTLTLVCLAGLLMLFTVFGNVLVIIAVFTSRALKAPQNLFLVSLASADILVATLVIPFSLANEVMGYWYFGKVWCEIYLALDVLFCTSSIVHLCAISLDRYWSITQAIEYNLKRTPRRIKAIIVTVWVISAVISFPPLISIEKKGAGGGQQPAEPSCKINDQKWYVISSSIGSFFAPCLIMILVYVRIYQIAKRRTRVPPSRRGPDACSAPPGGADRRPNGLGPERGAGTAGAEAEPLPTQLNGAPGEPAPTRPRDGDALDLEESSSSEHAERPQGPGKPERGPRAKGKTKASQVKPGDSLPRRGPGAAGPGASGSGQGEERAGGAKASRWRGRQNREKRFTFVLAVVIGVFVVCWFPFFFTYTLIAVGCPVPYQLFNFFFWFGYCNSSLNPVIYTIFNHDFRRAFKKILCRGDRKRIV

[2] = tested on: alpha adrenergic receptors; conditions: background statement; cited from earlier work
[3] = tested on: alpha-2 adrenergic receptors; conditions: background statement; cited from earlier work

| Compound | Ki [1] [nM] | other results |
| --- | --- | --- |
| CCc1c(Cl)nc(N2CCN(C)CC2)nc1NC(C)C [Example 25, 2-N-methylpiperazino-4-isopropylamino-5-ethyl-6-chloropyrimidine] | – | Ki ([1]; read-out: Ki): 51 nM |
| CC(C)Nc1nc(N2CCN(C)CC2)nc(Cl)c1Cl [Example 10, 2-N-methylpiperazino-4-isopropylamino-5,6-dichloropyrimidine] | 5 | – |
| CN1CCN(c2nc(N)c(Cl)c(Cl)n2)CC1 [Example 8, 2-N-methylpiperazino-4-amino-5,6-dichloropyrimidine] | 51 | – |
| Cc1c(Cl)nc(N2CCN(C)CC2)nc1NC(C)C [Example 21, 2-N-methylpiperazino-4-isopropylamino-5-methyl-6-chloropyrimidine] | 16 | – |
| Clc1cccc(Cl)c1N=C1NCCN1 [Clonidine, clonidine] | – | behaviour towards alpha adrenergic receptors [2]: behaves as an agonist towards alpha adrenergic receptors; affinity for alpha-2 receptors [3]: strong affinity |
| CNc1nc(N2CCN(C)CC2)nc(Cl)c1Cl [Example 9, 2-N-methylpiperazino-4-methylamino-5,6-dichloro-pyrimidine] | 44 | – |
| COc1c(Cl)nc(N2CCN(C)CC2)nc1NC(C)C [Example 12, 2-N-methylpiperazino-4-isopropylamino-5-methoxy-6-chloropyrimidine] | – | Ki ([1]; read-out: Ki): 51 nM |
